According to patent publication US20230000852A1, “Treatment of Dermal Cytokine Storm Syndromes” (Bridge Pharma, Inc., priority 2021, published 2023):
Where two headings read alike, the source gives them in different places.

How the values were obtained:
[1] = test system: sedation; conditions: art-accepted mouse model of sedation; U.S. Pat. Nos. 7,226,934 and 7,557,128; cited from earlier work
[2] = test system: IL-8; assay: PHA-induced IL-8 release from human leucocytes (buffy coats); assay type: cell-based; conditions: Leucocyte, 30 min pre-incubation, PHA 5 μg/ml 16 hours
Method: (§1) The objective of this study was to assess the ability of norketotifen to inhibit cytokine release from stimulated human leucocytes.
(§2) The study was conducted in two phases. The first phase included optimization of the test methodology and including dose-range finding studies, using buffy coats from 3 human donors, stimulated with phytohemagglutinin (PHA). Following optimization of the test conditions, a final protocol was issued. In the ensuing Main Study, white blood cells (buffy coats) from 5 healthy human donors were stimulated with PHA, 5 μg/ml. The concentrations of the test article and the duration of exposure were optimized to obtain acceptable dose-response ratios. Thus, the inhibitory effects of three concentrations of NK and one concentration of ketotifen were evaluated in the Main Study. The buffy coats containing white blood cells from 5 male human donors were resuspended in assay media and were pre-incubated for 30 min with either vehicle/saline, ketotifen 4.3 μg/ml (10 μM) and norketotifen 0.4 μg/ml, 4.1 μg/ml and 41 μg/ml (1.0; 10 and 100 μM). Following these preincubations, the white blood cells were stimulated for 16 hours with PHA, 5 μg/ml. The cell system supernatants were then harvested and stored frozen pending analyses.
(§3) The concentration of the test articles had to be high in this ex vivo study since the test kit used a high concentration of the agonist PHA (5 μg/ml) and a long exposure time (16 hrs).

[3] = test system: IL-13; assay: PHA-induced IL-13 release from human leucocytes (buffy coats); assay type: cell-based; conditions: Leucocyte, 30 min pre-incubation, PHA 5 μg/ml 16 hours
Method: as §1, §2, §3

[4] = test system: MIP-1a; assay: PHA-induced MIP-1a release from human leucocytes (buffy coats); assay type: cell-based; conditions: Leucocyte, 30 min pre-incubation, PHA 5 μg/ml 16 hours
Method: as §1, §2, §3

[5] = Dermal and plasma concentrations of NK after oral dosing to dogs; assay type: in vivo
Method: The purpose was to determine drug concentrations and calculate pharmacokinetics in the skin and plasma of dogs during and following daily oral administration of S-NK-HF (the S-isomer of norketotifen hydrogen fumarate) for four weeks.
Five male beagle dogs, weighing 11.2-13.9 kg (2-4 years old) were included in the study. All animals were administered p.o. doses of the test article 8.0 mg/kg/day as a hydrogen fumarate salt, equal to 5.6 mg/kg/day of the free base. A single isomer of NK was used, since an objective of this study was also to assess the racemization of the NK isomers. The animals were dosed once daily for four weeks followed by daily observations and tissue sampling for an additional two-week washout period.
Multiple plasma samples and skin biopsies were taken from each dog on Day 1 and Day 28 of drug administration. The plasma and skin samplings were performed at pre-dose, and at 2, 6, 12, and 24 hours post-dose. Plasma and skin samples were also taken intermittently at predetermined intervals during the 28-days dosing period and up to the last day of the study, which was Day 42. Blood samples were taken from v. cephalica antebrachii. Skin biopsies were taken from the area between the mid ventral to lateral abdominal areas, using a 6 mm skin biopsy punch. Subcutaneous fat deposits were carefully trimmed from the skin samples and the skin samples were then weighed. All plasma and skin samples were analyzed using LC/MS/MS methodology.

[6] = test system: INF-γ; assay: PHA-induced INF-γ release from human leucocytes (buffy coats); assay type: cell-based; conditions: Leucocyte, 30 min pre-incubation, PHA 5 μg/ml 16 hours
Method: as §1, §2, §3

[7] = test system: sedation; conditions: humans, oral; U.S. Pat. Nos. 9,138,431 and 9,345,697; cited from earlier work
[8] = test system: human leucocytes (buffy coats); assay: Cytokine and chemokine release from stimulated human leucocytes, overall; assay type: cell-based; conditions: PHA 5 μg/ml, 16 hours
Method: as §1
as §2, with “analyses. […]” for “analyses.”

[9] = test system: IL-4; assay: PHA-induced IL-4 release from human leucocytes (buffy coats); assay type: cell-based; conditions: Leucocyte, 30 min pre-incubation, PHA 5 μg/ml 16 hours
Method: as §1, §2, §3

[10] = test system: IMQ-induced psoriasiform hypercytokinemia; assay: Imiquimod (IMQ) induced psoriasis in mice; assay type: in vivo; conditions: for Scratching bouts: Day 6, 30 minutes observation; for Total Scores ± SEM: cumulative erythema plus scaling plus thickness; for Mean Scores of Skin Lesions: Redness / Mean Scores of Skin Lesions: Scaling / Mean Scores of Skin Lesions: Thickness: scale 0 to 4
Excerpt: The objective of this study was to assess the ability of NK to inhibit the IMQ-induced psoriasiform hypercytokinemia in mice. Topically applied IMQ is known to induce a psoriasis-like Cytokine Storm in mice by releasing a large number of cytokines, thereby causing a disease (hypercytokinemia) that is closely similar to psoriasis in human patients. Female BALB/c mice were used (8-11 weeks old; 4 animals/group). A psoriasiform skin condition was induced by repeated applications of an IMO-cream on the pre-shaved skin of the back of mice for 6 days, using […] 5% cream (IMQ-cream), at a dose of 62.5 mg per mouse, which is equal to 3.125 mg active per mouse. Starting from day 3 of dosing the skin was scored for Redness, Thickness and Scaling using a scoring system on the scale of 0 to 4, where 0=none; 1=slight; 2=moderate; 3=marked; and 4=very marked. The cumulative scores (erythema plus scaling plus thickness) served as a measure of the severity of dermal, psoriasis-like inflammation. […] A scratch bout was defined as one or more rapid back-and-forth hind paw motions directed toward and contacting the IMQ-treated area. • Group 1: (IMQ Positive Control Group): 4 mice were treated as described above. • Group 2: 4 mice were given NK 10 mg/kg/day, PO, starting 3 days before the first application of IMQ. • Group 3: same treatment as Group 2, but the dose of NK was 20 mg/kg/day. • Group 4: same treatment as Group 3, but the dose of NK was 30 mg/kg/day. ANOVA (Dunnett's Method)-positive control (IMQ) vs test groups. The methodology used here was the van der Fits (2009) method with minor modifications.

[11] = test system: IL-10; assay: PHA-induced IL-10 release from human leucocytes (buffy coats); assay type: cell-based; conditions: Leucocyte, 30 min pre-incubation, PHA 5 μg/ml 16 hours
Method: as §1, §2, §3

Question: For `O=C1Cc2ccccc2C(=C2CCNCC2)c2ccsc21` (racemic) [NK, norketotifen], which Sedative effects [1] is on record?
Answer: significant sedative effects

Question: What about the inhibition at 1 µM ([2]; 1 uM) of the same compound?
Answer: 10.3%

Question: And the inhibition at 10 µM ([2]; 10 uM)?
Answer: 34.4%

Question: And the inhibition at 100 µM ([2]; 100 uM)?
Answer: 78.3%

Question: What about the inhibition at 1 µM ([3]; 1 uM) of the same compound?
Answer: 0%

Question: What about the inhibition at 10 µM ([3]; 10 uM) of the same compound?
Answer: 34.5%

Question: What about the inhibition at 100 µM ([3]; 100 uM) of the same compound?
Answer: 74.2%

Question: What about the inhibition at 1 µM ([4]; 1 uM) of the same compound?
Answer: 9.53%

Question: What about the inhibition at 10 µM ([4]; 10 uM) of the same compound?
Answer: 25.9%

Question: And the inhibition at 100 µM ([4]; 100 uM)?
Answer: 91%

Question: And the half-life ([5]; male, beagle, dog, plasma, oral, 8 mg/kg/day, plasma, read-out: Plasma half-life)?
Answer: 10 to 11 h

Question: What about the half-life ([5]; male, beagle, dog, plasma, po, 8 mg/kg/day, oral S-NK 8.0 mg/kg/day for 28 days, dogs (N = 5), plasma, read-out: T1/2 Plasma (converted)) of the same compound?
Answer: 10.5 h

Question: And the half-life ([5]; male, beagle, dog, skin, oral, 8 mg/kg/day, skin, read-out: Dermal half-life (duration of high concentration in the skin))?
Answer: ≤ 168 h

Question: What about the Kp ([5]; male, beagle, dog, skin, oral, 8 mg/kg/day, under laboratory conditions, read-out: Skin concentration relative to plasma concentration) of the same compound?
Answer: ≤ 16

Question: And the half-life ([5]; male, beagle, dog, skin, po, 8 mg/kg/day, oral S-NK 8.0 mg/kg/day for 28 days, dogs (N = 5), skin, read-out: T1/2 Skin (converted))?
Answer: 168 h

Question: And the MRT ([5]; male, beagle, dog, oral S-NK 8.0 mg/kg/day for 28 days, dogs (N = 5), plasma, read-out: MRT Plasma)?
Answer: 12.8 h

Question: What about the MRT ([5]; male, beagle, dog, oral S-NK 8.0 mg/kg/day for 28 days, dogs (N = 5), skin, read-out: MRT Skin) of the same compound?
Answer: 169 h

Question: And the “AUC∞ Plasma” value ([5]; oral S-NK 8.0 mg/kg/day for 28 days, dogs (N = 5), plasma)?
Answer: 3286 ng*hr/mL or g

Question: What about the “AUC∞ Skin” value ([5]; oral S-NK 8.0 mg/kg/day for 28 days, dogs (N = 5), skin) of the same compound?
Answer: 54187 ng*hr/mL or g

Question: What about the “Dermal half-life in skin of dogs (in words)” value ([5]; skin of dogs) of the same compound?
Answer: one week

Question: And the inhibition at 1 µM ([6]; 1 uM)?
Answer: 0%

Question: What about the inhibition at 10 µM ([6]; 10 uM) of the same compound?
Answer: 16.5%

Question: And the inhibition at 100 µM ([6]; 100 uM)?
Answer: 71.6%

Question: What about the Sedative side effects [7] of the same compound?
Answer: free from sedative side effects

Question: What about the “Inhibition of release of cytokines and chemokines from human white blood cells (in words)” value [8] of the same compound?
Answer: dose-dependently inhibited

Question: What about the inhibition at 1 µM ([9]; 1 uM) of the same compound?
Answer: 0%

Question: What about the inhibition at 10 µM ([9]; 10 uM) of the same compound?
Answer: 14.3%

Question: And the inhibition at 100 µM ([9]; 100 uM)?
Answer: 98.3%

Question: What about the Scratching bouts ([10]; NK 10 mg/kg/day PO from 3 days before IMQ) of the same compound?
Answer: 7.0

Question: And the “Total Scores ± SEM” value ([10]; NK 10 mg/kg/day oral)?
Answer: 1.5 ± 0.65

Question: What about the “Mean Scores of Skin Lesions: Redness” value ([10]; NK 10 mg/kg/day oral) of the same compound?
Answer: 0.75

Question: And the “Mean Scores of Skin Lesions: Scaling” value ([10]; NK 10 mg/kg/day oral)?
Answer: 0.25

Question: And the “Mean Scores of Skin Lesions: Thickness” value ([10]; NK 10 mg/kg/day oral)?
Answer: 0.5

Question: And the Scratching bouts ([10]; NK 20 mg/kg/day PO from 3 days before IMQ)?
Answer: 4.25

Question: What about the “Total Scores ± SEM” value ([10]; NK 20 mg/kg/day oral) of the same compound?
Answer: 0.5 ± 0.29

Question: What about the “Mean Scores of Skin Lesions: Redness” value ([10]; NK 20 mg/kg/day oral) of the same compound?
Answer: 0.5

Question: And the “Mean Scores of Skin Lesions: Scaling” value ([10]; NK 20 mg/kg/day oral)?
Answer: 0

Question: And the “Mean Scores of Skin Lesions: Thickness” value ([10]; NK 20 mg/kg/day oral)?
Answer: 0

Question: And the “Total Scores ± SEM” value ([10]; NK 30 mg/kg/day oral)?
Answer: 0.33 ± 0.33

Question: What about the “Mean Scores of Skin Lesions: Redness” value ([10]; NK 30 mg/kg/day oral) of the same compound?
Answer: 0.33

Question: What about the “Mean Scores of Skin Lesions: Scaling” value ([10]; NK 30 mg/kg/day oral) of the same compound?
Answer: 0

Question: And the “Mean Scores of Skin Lesions: Thickness” value ([10]; NK 30 mg/kg/day oral)?
Answer: 0

Question: And the “Inhibition of psoriasis-related cytokine storm (in words)” value ([10]; antipruritic activity and redness, thickness, scaling scores)?
Answer: almost completely inhibited

Question: And the “Effect on scratching in mice (in words)” value ([10]; oral NK, not statistically significant (p>0.05))?
Answer: dose-dependent effect

Question: What about the inhibition at 1 µM ([11]; 1 uM) of the same compound?
Answer: 12.7%

Question: And the inhibition at 10 µM ([11]; 10 uM)?
Answer: 24.8%

Question: What about the inhibition at 100 µM ([11]; 100 uM) of the same compound?
Answer: 90.4%
